Bounds are passed on as bounds.

For one data set, the target named is T1, NET (Rattus norvegicus, UniProt Q63380).
T1 construct: Cortex from rat brain was collected and homogenised; from tissue; host or cells: rat brain cortex homogenate/membranes
T1 sequence (Q63380 1-617): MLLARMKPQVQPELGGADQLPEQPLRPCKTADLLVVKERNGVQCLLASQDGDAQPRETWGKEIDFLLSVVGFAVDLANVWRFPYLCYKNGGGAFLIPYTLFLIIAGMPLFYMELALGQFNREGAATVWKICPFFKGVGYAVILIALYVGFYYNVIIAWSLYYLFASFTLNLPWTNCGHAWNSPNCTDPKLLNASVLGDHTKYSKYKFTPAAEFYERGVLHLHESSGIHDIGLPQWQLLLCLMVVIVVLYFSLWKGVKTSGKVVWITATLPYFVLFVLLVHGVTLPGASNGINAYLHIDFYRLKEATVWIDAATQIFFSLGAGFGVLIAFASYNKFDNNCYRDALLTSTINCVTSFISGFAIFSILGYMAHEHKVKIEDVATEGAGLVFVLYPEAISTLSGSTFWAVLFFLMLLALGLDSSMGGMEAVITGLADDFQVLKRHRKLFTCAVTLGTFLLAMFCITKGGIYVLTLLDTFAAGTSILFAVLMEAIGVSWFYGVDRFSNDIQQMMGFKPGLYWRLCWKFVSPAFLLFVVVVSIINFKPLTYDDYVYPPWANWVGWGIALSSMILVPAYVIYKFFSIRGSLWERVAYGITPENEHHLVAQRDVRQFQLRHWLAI
As to the kind of experiment: In vitro determination of NET reuptake inhibition ([3H]Nixosetine binding, rat brain cortex membranes). How it is done:
In vitro Determination of NET Reuptake Inhibition
Cortex from rat brain was collected and homogenised using an Ultra-Turrax T25 and a Dual homogeniser in ice-cold homogenising buffer containing Tris, NaCl and KCl (50 mM, 120 mM and 5 mM, respectively, pH 7.4) prior to dilution to an appropriate protein concentration optimised for specific and non-specific binding. […] Membrane-bound activity was detected by filtration through a Packard Filtermate harvester onto GF/B Unifilterplates, washed with ice-cold Tris-HCl buffer, containing NaCl and KCl (50 mM, 120 mM and 4 mM; pH 7.4; 6×0.5 ml). Filters were allowed to dry for 24 h before adding scintillation fluid. Scintillation fluid was allowed to saturate filters for 24 h before counting in a Topcount scintillation counter. Percentage specific bound and competition binding curves were calculated using S-Plus software (Insightful).
Regarding `CSC1=NC[C@H]2C[C@@H]3c4ccccc4Cc4ccc(F)cc4[C@H]3N12` [compound 9, (4aS,13bR,14aR)-6-fluoro-3-(methylsulfanyl)-1,4a,9,13b,14,14a-hexahydrodibenzo[3′,4′:6′,7′]cyclohepta[1′,2′:4,5]pyrrolo[1,2-c]imidazole], the IC50 was 3.98 µM.
`CN(C)CC1CO[C@H]2c3cc(F)ccc3Cc3ccccc3[C@@H]12` (mixture of isomers) [compound 48, [(3aR,12bR)-11-fluoro-3,3a,8,12b-tetrahydro-2H-dibenzo[3,4:6,7]cyclohepta[1,2-b]furan-3-yl]-N,N-dimethylmethanamine] showed an IC50 of 0.224 µM.
Same read-out and setting: under `CN(C)CC1CO[C@@H]2c3cc(F)ccc3Cc3ccccc3[C@@H]12` (mixture of isomers) [compound 47, [(3aR,12bS)-11-fluoro-3,3a,8,12b-tetrahydro-2H-dibenzo[3,4:6,7]cyclohepta[1,2-b]furan-3-yl]-N,N-dimethylmethanamine] stands 0.011 µM; under `CNC[C@H]1C[C@@H]2c3ccccc3Cc3ccc(F)cc3[C@H]2N1C=O` [compound 38, (2R,3aR,12bS)-11-fluoro-2-[(methylamino)methyll]-3,3a,8,12b-tetrahydrodibenzo-[3,4: 6,7]-cyclohepta[1,2-b]pyrrole-1(2H)-carbaldehyde], 0.49 µM; under `OCCN1CCN(C[C@H]2C[C@@H]3c4ccccc4Oc4ccc(F)cc4[C@H]3N2)CC1` [compound 19, 2-(4-{[(2R,3aR,12bS)-11-fluoro-2,3,3a,12b-tetrahydro-1H-dibenzo[2,3:6,7]-oxepino[4,5-b]pyrrol-2-yl]methyl}-1-piperazinyl)ethanol], > 10 µM.
For `CN(C)C[C@H]1C[C@@H]2c3ccccc3Oc3ccc(F)cc3[C@H]2N1` [compound 17, [(2R,3aR,12bS)-11-fluoro-2,3,3a,12b-tetrahydro-1H-dibenzo[2,3:6,7]oxepino[4,5-b]pyrrol-2-yl]-N,N-dimethylmethanamine], the IC50 was 0.00741 µM.
`CN(C)[C@@H]1CO[C@H]2c3cc(F)ccc3Cc3ccccc3[C@H]2C1` [compound 32, (3S,4aR,13bR)-12-fluoro-N,N-dimethyl-2,3,4,4a,9,13b-hexahydrodibenzo[3,4:6,7]-cyclohepta[1,2-b]pyran-3-amine]: the IC50 was 0.0195 µM.
The same measure, in the same setting: with `CN(C)C[C@@H]1C[C@@H]2c3ccccc3Cc3ccc(F)cc3[C@H]2S1(=O)=O` [compound 22, [(2S,3aR,12bS)-11-fluoro-1,1-dioxido-3,3a,8,12b-tetrahydro-2H-dibenzo[3,4:6,7]-cyclohepta[1,2-b]thien-2-yl]-N,N-dimethylmethanamine] the figure was 4.79 µM; with `CN(C)C[C@H]1C[C@@H]2c3ccccc3Cc3ccc(F)cc3[C@H]2N1C` [compound 5, [(2R,3aR,12bS)-11-fluoro-1-methyl-1,2,3,3a,8,12b-hexahydrodibenzo[3,4:6,7]-cyclohepta[1,2-b]pyrrol-2-yl]-N,N-dimethylmethanamine], 0.288 µM.
For the compound `CN1C[C@@H]2C[C@@H]3c4ccccc4Cc4ccc(F)cc4[C@H]3N2C1` [compound 1, (4aS,13bR,14aS)-6-fluoro-2-methyl-1,2,3,4a,9,13b,14,14a-octahydrodibenzo-[3′,4′:6′,7′]cyclohepta[1′,2′:4,5]pyrrolo[1,2-c]imidazole], the IC50 was 0.115 µM.
Turning to `OCCN1CCN(C[C@H]2C[C@@H]3c4ccccc4Cc4ccc(F)cc4[C@H]3N2)CC1` [43a, 2-(4-{[(2R,3aR,12bS)-11-fluoro-1,2,3,3a,8,12b-hexahydrodibenzo[3,4:6,7]-cyclohepta[1,2-b]pyrrol-2-yl]methyl}-1-piperazinyl)ethanol], the concentration for half-maximal inhibition (IC50) was > 10 µM.
As to `COCCN1[C@@H](CN(C)C)C[C@@H]2c3ccccc3Cc3ccc(F)cc3[C@H]21` [compound 40, [(2R,3aR,12bS)-11-Fluoro-1-(2-methoxyethyl)-1,2,3,3a,8,12b-hexahydrodibenzo-[3,4:6,7]-cyclohepta[1,2-b]pyrrol-2-yl]-N,N-dimethylmethanamine], the concentration for half-maximal inhibition (IC50) is 0.479 µM.
`CN(C)C[C@H]1C[C@@H]2c3ccccc3Cc3ccc(F)cc3[C@H]2N1CCO` [compound 39, 2-((2R,3aR,12bS)-2-[(dimethylamino)methyl]-11-fluoro-3,3a,8,12b-tetrahydrodibenzo[3,4:6,7]cyclohepta[1,2-b]pyrrol-1(2H)-yl)ethanol] gave an IC50 of 0.126 µM.
In the case of `Fc1ccc2c(c1)[C@H]1N[C@@H](CN3CCOCC3)C[C@@H]1c1ccccc1C2` [compound 42, (2R,3aR,12bS)-11-fluoro-2-(4-morpholinylmethyl)-1,2,3,3a,8,12b-hexahydrodibenzo[3,4:6,7]cyclohepta[1,2-b]pyrrole], the IC50 was 5.5 µM.
As to `OC1CCN(C[C@H]2C[C@@H]3c4ccccc4Oc4ccc(F)cc4[C@H]3N2)C1` (stereo partly drawn) [compound 20, 1-{[(2R,3aR,12bS)-11-fluoro-2,3,3a,12b-tetrahydro-1H-dibenzo[2,3:6,7]oxepino-[4,5-b]pyrrol-2-yl]methyl}-3-pyrrolidinol], the IC50 was 0.417 µM.
For the compound `CN(C)C[C@H]1C[C@@H]2c3ccccc3Cc3ccc(F)cc3[C@H]2S1` [compound 23, [(2R,3aR,12bS)-11-fluoro-3,3a,8,12b-tetrahydro-2H-dibenzo[3,4:6,7]cyclohepta-[1,2-b]thien-2-yl]-N,N-dimethylmethanamine], the IC50 is 0.0282 µM.
Turning to `CN1CC(=O)N2[C@@H](C[C@@H]3c4ccccc4Cc4ccc(F)cc4[C@H]32)C1` [compound 4, (5aS,14bR,15aS)-7-fluoro-2-methyl-1,2,3,5a,10,14b,15,15a-octahydro-4H-dibenzo[3′,4′:6′,7′]cyclohepta[1′,2′:4,5]pyrrolo[1,2-a]pyrazin-4-one], the “NET Reuptake Inhibition” value is listed as <5.
The compound `O=C1CNC[C@H]2C[C@@H]3c4ccccc4Cc4ccc(F)cc4[C@H]3N12` [compound 12, (5aS,14bR,15aR)-7-fluoro-1,2,3,5a,10,14b,15,15a-octahydro-4H-dibenzo[3′,4′:6′,7′]cyclohepta[1′,2′:4,5]pyrrolo[1,2-a]pyrazin-4-one] gave an IC50 of 3.47 µM.
Regarding `CNC[C@H]1CC[C@@H]2c3ccccc3Cc3ccc(F)cc3[C@H]2O1` [compound 46, [(2R,4aR,13bS)-12-fluoro-2,3,4,4a,9,13b-hexahydrodibenzo[3,4:6,7]cyclohepta-[1,2-b]pyran-2-yl]-N-methylmethanamine], the half-maximal inhibitory concentration (IC50) was 0.398 µM.
In turn, `O=C1NC[C@@H]2C[C@@H]3c4ccccc4Cc4ccc(F)cc4[C@H]3N12` [compound 15, (4aS,13bR,14aS)-6-fluoro-1,4a,9,13b,14,14a-hexahydrodibenzo[3′,4′:6′,7′]-cyclohepta[1′,2′:4,5]pyrrolo[1,2-c]imidazol-3(2H)-one] had an IC50 of 2.4 µM.
`CN1C[C@@H]2C[C@@H]3c4ccccc4Cc4ccc(F)cc4[C@H]3N2C1=O` [compound 16, (4aS,13bR,14aS)-6-fluoro-2-methyl-1,4a,9,13b,14,14a-hexahydrodibenzo-[3′,4′:6′,7′]cyclohepta[1′,2′:4,5]pyrrolo[1,2-c]imidazol-3(2H)-one]: the IC50 was > 10 µM.
On to `COCC(=O)N1[C@@H](CN(C)C)C[C@@H]2c3ccccc3Cc3ccc(F)cc3[C@H]21` [compound 10, [(2R,3aR,12bS)-11-fluoro-1-(methoxyacetyl)-1,2,3,3a,8,12b-hexahydrodibenzo-[3,4:6,7]cyclohepta[1,2-b]pyrrol-2-yl]-N,N-dimethylmethanamine], for which the half-maximal inhibitory concentration (IC50) is 4.79 µM.
For `COC(=O)N1[C@@H](CN(C)C)CC[C@@H]2c3ccccc3Cc3ccc(F)cc3[C@H]21` [compound 45, Methyl(2R,4aR,13bS)-2-[(dimethylamino)methyl]-12-fluoro-2,3,4,4a,9,13b-hexahydro-1H-dibenzo[3,4:6,7]cyclohepta[1,2-b]pyridine-1-carboxylate], the IC50 is 0.794 µM.
`CC(=O)N1[C@@H](CN(C)C)C[C@@H]2c3ccccc3Cc3ccc(F)cc3[C@H]21` [36b, [(2R,3aR,12bS)-1-acetyl-11-fluoro-1,2,3,3a,8,12b-hexahydrodibenzo[3,4:6,7]-cyclohepta[1,2-b]pyrrol-2-yl]-N,N-dimethylmethanamine] gave a 50% inhibitory concentration (IC50) of 3.89 µM.
As for `CN1C[C@H]2C[C@@H]3c4ccccc4Cc4ccc(F)cc4[C@H]3N2C1=O` [compound 7, (4aS,13bR,14aR)-6-fluoro-2-methyl-1,4a,9,13b,14,14a-hexahydrodibenzo-[3′,4′:6′,7′]cyclohepta[1′,2′:4,5]pyrrolo[1,2-c]imidazol-3(2H)-one], the half-inhibitory concentration (IC50) was 0.891 µM.
As for `CN(C)C[C@@H]1C[C@@H]2c3ccccc3Cc3ccc(F)cc3[C@H]2[S@@+]1[O-]` [compound 26, [(2S,3aR,12bS)-11-fluoro-1-oxido-3,3a,8,12b-tetrahydro-2H-dibenzo[3,4:6,7]-cyclohepta[1,2-b]thien-2-yl]-N,N-dimethylmethanamine], the half-inhibitory concentration (IC50) is > 10 µM.
Take `Fc1ccc2c(c1)[C@@H]1[C@H](C[C@H]3CNC(=S)N31)c1ccccc1C2` [compound 3, (4aS,13bR,14aS)-6-fluoro-1,4a,9,13b,14,14a-hexahydrodibenzo[3′,4′:6′,7′]cycloheta[1′,2′:4,5]pyrrolo[1,2-c]imidazole-3(2H)-thione]: the “NET Reuptake Inhibition” value is recorded as 5.24.
`CN(C)C[C@H]1C[C@@H]2c3ccccc3Cc3ccc(F)cc3[C@H]2N1` [37a, [(2R,3aR,12bS)-11-fluoro-1,2,3,3a,8,12b-hexahydrodibenzo[3,4:6,7]cyclohepta-[1,2-b]pyr-rol-2-yl]-N,N-dimethylmethanamine] had an IC50 of 0.00794 µM.

Tested on in a further data set: not given
Experiment: not given
In the case of `O=C1CO[C@H]2c3cc(F)ccc3Cc3ccccc3[C@H]2C1` [compound 31, (4aR,13bR)-12-fluoro-4,4a,9,13b-tetrahydrodibenzo[3,4:6,7]cyclohepta[1,2-b]-pyran-3(2H)-one], the melting point is 146 to 148 °C.

What is called IC50 is the concentration that gives 50% inhibition. A low value points to inhibition by little substance. In general, melting point refers to the temperature of the solid-liquid transition.

(Values after patent US7799785B2, “Substituted tetracyclic tetahydrofuran, pyrrolidine and tetrahydrothiophene derivatives” (Janssen Pharmaceutica NV, priority 2004, dated 2010).)
